The source of these data is ChEMBL document CHEMBL1909046, “DrugMatrix in vitro pharmacology data”.

Sequence of Histamine H2 receptor (P25021 whole entry): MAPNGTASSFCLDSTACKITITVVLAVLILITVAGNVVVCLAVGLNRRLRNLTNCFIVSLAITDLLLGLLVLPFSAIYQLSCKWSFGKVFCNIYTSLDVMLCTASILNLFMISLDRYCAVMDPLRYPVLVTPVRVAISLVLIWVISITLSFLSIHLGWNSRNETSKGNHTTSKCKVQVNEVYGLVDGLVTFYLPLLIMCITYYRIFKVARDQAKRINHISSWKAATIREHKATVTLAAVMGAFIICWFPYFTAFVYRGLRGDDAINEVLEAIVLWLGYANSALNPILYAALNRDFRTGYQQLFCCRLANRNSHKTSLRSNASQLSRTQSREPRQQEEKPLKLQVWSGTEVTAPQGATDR

One series deals with Cytochrome P450 2C19 (Homo sapiens, UniProt P33261). To be noted: bti-tn-5b1-4.
Sequence of Cytochrome P450 2C19 (P33261 whole entry): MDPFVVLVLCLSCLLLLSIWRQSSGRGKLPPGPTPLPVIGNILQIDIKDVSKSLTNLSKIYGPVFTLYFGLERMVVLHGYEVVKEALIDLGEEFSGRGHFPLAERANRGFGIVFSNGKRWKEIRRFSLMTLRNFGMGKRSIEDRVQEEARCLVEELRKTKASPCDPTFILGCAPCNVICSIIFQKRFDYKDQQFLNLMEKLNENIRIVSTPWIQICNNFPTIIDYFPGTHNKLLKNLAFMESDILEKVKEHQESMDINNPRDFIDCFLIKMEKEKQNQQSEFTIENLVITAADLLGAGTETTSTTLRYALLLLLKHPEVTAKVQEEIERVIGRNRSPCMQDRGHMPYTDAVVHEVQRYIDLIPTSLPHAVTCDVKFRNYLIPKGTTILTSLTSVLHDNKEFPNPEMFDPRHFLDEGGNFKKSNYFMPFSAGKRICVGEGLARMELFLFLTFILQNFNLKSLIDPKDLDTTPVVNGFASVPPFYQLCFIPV
With `Sc1ncnc2nc[nH]c12` [MERCAPTOPURINE ANHYDROUS], the IC50 result is reported as “Not Active” and the Ki entry is “Not Active”.
As for `CC(C)(C)NCC(O)c1cc(Cl)c(N)c(Cl)c1` (stereo not given) [CLENBUTEROL], the IC50 entry was “Not Active” and the Ki entry is recorded as “Not Active”.
For `Nc1nc2c(ncn2COCCO)c(=O)[nH]1` [ACYCLOVIR], the IC50 result is “Not Active” and the Ki result is recorded as “Not Active”.
Regarding `c1ccc2c(c1)c1cccc3ccc4cccc2c4c31` [BENZO[E]PYRENE], the IC50 entry is listed as “Not Active” and the Ki entry is “Not Active”.
In the case of `O=C(O)CCCc1ccc(N(CCCl)CCCl)cc1` [CHLORAMBUCIL], the IC50 result is on record as “Not Active” and the Ki entry is given as “Not Active”.
With `Cc1ccc(N(CC2=NCCN2)c2cccc(O)c2)cc1` [PHENTOLAMINE], the IC50 result was “Not Active” and the Ki entry is reported as “Not Active”.
`CC1(C)O[C@@H]2C[C@H]3[C@@H]4CCC5=CC(=O)CC[C@]5(C)[C@@]4(F)[C@@H](O)C[C@]3(C)[C@]2(C(=O)CCl)O1` [HALCINONIDE]: the IC50 entry is given as “Not Active” and the Ki result was “Not Active”.
`NC(=O)N1c2ccccc2CCc2ccccc21`: the IC50 result is on record as “Not Active” and the Ki result was “Not Active”.
As to `CC(C)C(Br)C(=O)NC(N)=O` (stereo not given) [BROMISOVALUM], the IC50 entry was “Not Active” and the Ki result is listed as “Not Active”.

Another series concerns the target Histamine H2 receptor (Homo sapiens, UniProt P25021). The format is cell membranes, CHO-K1, Membrane. The note with it: cho-k1. Note: in other assays of this panel Not Active means under 50% inhibition at 10 µM.
For the compound `Sc1ncnc2nc[nH]c12` [MERCAPTOPURINE ANHYDROUS], the IC50 entry was “Not Active”.
Turning to `CC(C)(C)NCC(O)c1cc(Cl)c(N)c(Cl)c1` (stereo not given) [CLENBUTEROL], the IC50 result was “Not Active”.
In the case of `Nc1nc2c(ncn2COCCO)c(=O)[nH]1` [ACYCLOVIR], the IC50 result is given as “Not Active”.
As to `c1ccc2c(c1)c1cccc3ccc4cccc2c4c31` [BENZO[E]PYRENE], the IC50 result is listed as “Not Active”.
Still for that read-out and setting: the same measure for `O=C(O)CCCc1ccc(N(CCCl)CCCl)cc1` [CHLORAMBUCIL]: “Not Active”.
In the case of `Cc1ccc(N(CC2=NCCN2)c2cccc(O)c2)cc1` [PHENTOLAMINE], the IC50 entry was “Not Active”.
As to `CC1(C)O[C@@H]2C[C@H]3[C@@H]4CCC5=CC(=O)CC[C@]5(C)[C@@]4(F)[C@@H](O)C[C@]3(C)[C@]2(C(=O)CCl)O1` [HALCINONIDE], the IC50 entry was “Not Active”.
Same read-out and setting: the same measure for `NC(=O)N1c2ccccc2CCc2ccccc21`: “Not Active”.
Regarding `CC(C)C(Br)C(=O)NC(N)=O` (stereo not given) [BROMISOVALUM], the IC50 result was “Not Active”.

In a further series the target is Protein kinase C alpha type (Homo sapiens, UniProt P17252). The format is cell-based. The note with it: sf9.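 Note: inhibition of PKCalpha kinase activity measured in an enzyme assay with histone as the phosphorylation substrate; in other assays of this panel Not Active means under 50% inhibition at 10 µM.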
As for `Sc1ncnc2nc[nH]c12` [MERCAPTOPURINE ANHYDROUS], the IC50 result is listed as “Not Active”.
For the compound `CC(C)(C)NCC(O)c1cc(Cl)c(N)c(Cl)c1` (stereo not given) [CLENBUTEROL], the IC50 entry is given as “Not Active”.
Still for that read-out and setting: the same measure for `Nc1nc2c(ncn2COCCO)c(=O)[nH]1` [ACYCLOVIR]: “Not Active”.
On to `c1ccc2c(c1)c1cccc3ccc4cccc2c4c31` [BENZO[E]PYRENE], for which the IC50 entry was “Not Active”.
Still for that read-out and setting: with `O=C(O)CCCc1ccc(N(CCCl)CCCl)cc1` [CHLORAMBUCIL] the entry was “Not Active”.
Turning to `Cc1ccc(N(CC2=NCCN2)c2cccc(O)c2)cc1` [PHENTOLAMINE], the IC50 result is given as “Not Active”.
With `CC1(C)O[C@@H]2C[C@H]3[C@@H]4CCC5=CC(=O)CC[C@]5(C)[C@@]4(F)[C@@H](O)C[C@]3(C)[C@]2(C(=O)CCl)O1` [HALCINONIDE], the IC50 entry was “Not Active”.
On the same count and under the same terms, the same measure for `NC(=O)N1c2ccccc2CCc2ccccc21`: “Not Active”; for `CC(C)C(Br)C(=O)NC(N)=O` (stereo not given) [BROMISOVALUM]: “Not Active”.

Tested on in a further series: not listed separately
The series is described as follows: DRUGMATRIX: Platelet-Derived Growth Factor (PDGF) radioligand binding (ligand: [125I] PDGF). The note with it: nih3t3; Not Active = under 50% inhibition at 10 µM. The format is cell-based.
With `Sc1ncnc2nc[nH]c12` [MERCAPTOPURINE ANHYDROUS], the IC50 result is given as “Not Active” and the Ki result is reported as “Not Active”.
Regarding `CC(C)(C)NCC(O)c1cc(Cl)c(N)c(Cl)c1` (stereo not given) [CLENBUTEROL], the IC50 entry was “Not Active” and the Ki entry is recorded as “Not Active”.
Regarding `Nc1nc2c(ncn2COCCO)c(=O)[nH]1` [ACYCLOVIR], the IC50 entry is “Not Active” and the Ki entry is “Not Active”.
Regarding `c1ccc2c(c1)c1cccc3ccc4cccc2c4c31` [BENZO[E]PYRENE], the IC50 entry is “Not Active” and the Ki entry is on record as “Not Active”.
On to `O=C(O)CCCc1ccc(N(CCCl)CCCl)cc1` [CHLORAMBUCIL], for which the IC50 entry is recorded as “Not Active” and the Ki entry is listed as “Not Active”.
In the case of `Cc1ccc(N(CC2=NCCN2)c2cccc(O)c2)cc1` [PHENTOLAMINE], the IC50 result was “Not Active” and the Ki entry was “Not Active”.
Consider `CC1(C)O[C@@H]2C[C@H]3[C@@H]4CCC5=CC(=O)CC[C@]5(C)[C@@]4(F)[C@@H](O)C[C@]3(C)[C@]2(C(=O)CCl)O1` [HALCINONIDE], for which the IC50 entry is “Not Active” and the Ki result was “Not Active”.
On to `NC(=O)N1c2ccccc2CCc2ccccc21`, for which the IC50 entry is recorded as “Not Active” and the Ki result was “Not Active”.
As to `CC(C)C(Br)C(=O)NC(N)=O` (stereo not given) [BROMISOVALUM], the IC50 result is given as “Not Active” and the Ki result is “Not Active”.

Tested on in a further series: not listed separately
The series is described as follows: DRUGMATRIX: beta-Lactamase enzyme inhibition (substrate: Nitrocefin). Also noted: species or system Bacillus cereus. The note with it: Not Active = under 50% inhibition at 10 µM.
For `Sc1ncnc2nc[nH]c12` [MERCAPTOPURINE ANHYDROUS], the IC50 entry is on record as “Not Active” and the Ki entry is reported as “Not Active”.
As for `CC(C)(C)NCC(O)c1cc(Cl)c(N)c(Cl)c1` (stereo not given) [CLENBUTEROL], the IC50 entry is given as “Not Active” and the Ki result was “Not Active”.
Consider `Nc1nc2c(ncn2COCCO)c(=O)[nH]1` [ACYCLOVIR], for which the IC50 entry is “Not Active” and the Ki entry was “Not Active”.
`c1ccc2c(c1)c1cccc3ccc4cccc2c4c31` [BENZO[E]PYRENE]: the IC50 result is “Not Active” and the Ki result was “Not Active”.
Regarding `O=C(O)CCCc1ccc(N(CCCl)CCCl)cc1` [CHLORAMBUCIL], the IC50 entry is recorded as “Not Active” and the Ki entry was “Not Active”.
In the case of `Cc1ccc(N(CC2=NCCN2)c2cccc(O)c2)cc1` [PHENTOLAMINE], the IC50 result is recorded as “Not Active” and the Ki result was “Not Active”.
On to `CC1(C)O[C@@H]2C[C@H]3[C@@H]4CCC5=CC(=O)CC[C@]5(C)[C@@]4(F)[C@@H](O)C[C@]3(C)[C@]2(C(=O)CCl)O1` [HALCINONIDE], for which the IC50 result was “Not Active” and the Ki entry is “Not Active”.
For `NC(=O)N1c2ccccc2CCc2ccccc21`, the IC50 result was “Not Active” and the Ki entry is “Not Active”.
As for `CC(C)C(Br)C(=O)NC(N)=O` (stereo not given) [BROMISOVALUM], the IC50 entry was “Not Active” and the Ki result is listed as “Not Active”.

A further series deals with Tyrosine-protein kinase Lck (Homo sapiens, UniProt P06239). The series is described as follows: DRUGMATRIX: Protein Tyrosine Kinase, LCK enzyme inhibition (substrate: Poly(Glu:Tyr)). The class given is cell-based, Insect cells. To be noted: insect cells; Not Active = under 50% inhibition at 10 µM.
Sequence of Tyrosine-protein kinase Lck (P06239 whole entry): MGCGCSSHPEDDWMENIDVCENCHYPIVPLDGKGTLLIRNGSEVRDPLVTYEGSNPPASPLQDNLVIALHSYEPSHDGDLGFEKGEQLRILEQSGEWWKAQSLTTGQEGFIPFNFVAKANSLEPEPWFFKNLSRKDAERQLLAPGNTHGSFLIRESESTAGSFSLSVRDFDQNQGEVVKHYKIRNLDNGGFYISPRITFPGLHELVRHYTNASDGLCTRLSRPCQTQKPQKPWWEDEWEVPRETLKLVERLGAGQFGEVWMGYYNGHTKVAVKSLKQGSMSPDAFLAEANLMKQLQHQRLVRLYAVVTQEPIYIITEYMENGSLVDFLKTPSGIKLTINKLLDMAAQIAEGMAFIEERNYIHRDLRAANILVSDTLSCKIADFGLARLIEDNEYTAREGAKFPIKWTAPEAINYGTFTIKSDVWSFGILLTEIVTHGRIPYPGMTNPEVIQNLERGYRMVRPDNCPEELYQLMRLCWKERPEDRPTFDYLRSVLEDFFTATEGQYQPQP
On to `Sc1ncnc2nc[nH]c12` [MERCAPTOPURINE ANHYDROUS], for which the IC50 entry is reported as “Not Active”.
Turning to `CC(C)(C)NCC(O)c1cc(Cl)c(N)c(Cl)c1` (stereo not given) [CLENBUTEROL], the IC50 entry was “Not Active”.
As to `Nc1nc2c(ncn2COCCO)c(=O)[nH]1` [ACYCLOVIR], the IC50 result is listed as “Not Active”.
On the same count and under the same terms, with `c1ccc2c(c1)c1cccc3ccc4cccc2c4c31` [BENZO[E]PYRENE] the entry was “Not Active”; with `O=C(O)CCCc1ccc(N(CCCl)CCCl)cc1` [CHLORAMBUCIL], “Not Active”.
For the compound `Cc1ccc(N(CC2=NCCN2)c2cccc(O)c2)cc1` [PHENTOLAMINE], the IC50 entry is recorded as “Not Active”.
On the same count and under the same terms, with `CC1(C)O[C@@H]2C[C@H]3[C@@H]4CCC5=CC(=O)CC[C@]5(C)[C@@]4(F)[C@@H](O)C[C@]3(C)[C@]2(C(=O)CCl)O1` [HALCINONIDE] the entry was “Not Active”.
With `NC(=O)N1c2ccccc2CCc2ccccc21`, the IC50 result is “Not Active”.
On to `CC(C)C(Br)C(=O)NC(N)=O` (stereo not given) [BROMISOVALUM], for which the IC50 entry is recorded as “Not Active”.

The target of a further series is T1, Cathepsin G (Homo sapiens, UniProt P08311).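 Note: inhibition of Cathepsin G enzyme activity, tested on an AMC-conjugated peptide substrate; in other assays of this panel Not Active means under 50% inhibition at 10 µM.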
T1 sequence (P08311 whole entry): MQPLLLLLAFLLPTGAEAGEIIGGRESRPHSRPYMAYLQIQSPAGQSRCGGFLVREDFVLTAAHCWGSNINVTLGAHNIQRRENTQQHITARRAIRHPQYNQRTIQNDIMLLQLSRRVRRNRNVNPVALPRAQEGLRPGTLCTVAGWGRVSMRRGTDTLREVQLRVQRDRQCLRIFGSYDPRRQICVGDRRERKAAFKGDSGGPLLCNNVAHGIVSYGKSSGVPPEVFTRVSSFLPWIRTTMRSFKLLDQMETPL
The class given is tissue-based. To be noted: neutrophil.
On to `Sc1ncnc2nc[nH]c12` [MERCAPTOPURINE ANHYDROUS], for which the IC50 result is listed as “Not Active”.
Consider `CC(C)(C)NCC(O)c1cc(Cl)c(N)c(Cl)c1` (stereo not given) [CLENBUTEROL], for which the IC50 entry is recorded as “Not Active”.
`Nc1nc2c(ncn2COCCO)c(=O)[nH]1` [ACYCLOVIR]: the IC50 result is listed as “Not Active”.
`c1ccc2c(c1)c1cccc3ccc4cccc2c4c31` [BENZO[E]PYRENE]: the IC50 entry is given as “Not Active”.
Still for that read-out and setting: with `O=C(O)CCCc1ccc(N(CCCl)CCCl)cc1` [CHLORAMBUCIL] the entry was “Not Active”; with `Cc1ccc(N(CC2=NCCN2)c2cccc(O)c2)cc1` [PHENTOLAMINE], “Not Active”; with `CC1(C)O[C@@H]2C[C@H]3[C@@H]4CCC5=CC(=O)CC[C@]5(C)[C@@]4(F)[C@@H](O)C[C@]3(C)[C@]2(C(=O)CCl)O1` [HALCINONIDE], “Not Active”.
Same read-out and setting: the same measure for `NC(=O)N1c2ccccc2CCc2ccccc21`: “Not Active”.
On the same count and under the same terms, with `CC(C)C(Br)C(=O)NC(N)=O` (stereo not given) [BROMISOVALUM] the entry was “Not Active”.
